Read-outs that look alike come from different tables or passages of the source.
Biological target: T1, SIRT1 (Homo sapiens, UniProt Q96EB6)
T1 sequence (Q96EB6 1-747): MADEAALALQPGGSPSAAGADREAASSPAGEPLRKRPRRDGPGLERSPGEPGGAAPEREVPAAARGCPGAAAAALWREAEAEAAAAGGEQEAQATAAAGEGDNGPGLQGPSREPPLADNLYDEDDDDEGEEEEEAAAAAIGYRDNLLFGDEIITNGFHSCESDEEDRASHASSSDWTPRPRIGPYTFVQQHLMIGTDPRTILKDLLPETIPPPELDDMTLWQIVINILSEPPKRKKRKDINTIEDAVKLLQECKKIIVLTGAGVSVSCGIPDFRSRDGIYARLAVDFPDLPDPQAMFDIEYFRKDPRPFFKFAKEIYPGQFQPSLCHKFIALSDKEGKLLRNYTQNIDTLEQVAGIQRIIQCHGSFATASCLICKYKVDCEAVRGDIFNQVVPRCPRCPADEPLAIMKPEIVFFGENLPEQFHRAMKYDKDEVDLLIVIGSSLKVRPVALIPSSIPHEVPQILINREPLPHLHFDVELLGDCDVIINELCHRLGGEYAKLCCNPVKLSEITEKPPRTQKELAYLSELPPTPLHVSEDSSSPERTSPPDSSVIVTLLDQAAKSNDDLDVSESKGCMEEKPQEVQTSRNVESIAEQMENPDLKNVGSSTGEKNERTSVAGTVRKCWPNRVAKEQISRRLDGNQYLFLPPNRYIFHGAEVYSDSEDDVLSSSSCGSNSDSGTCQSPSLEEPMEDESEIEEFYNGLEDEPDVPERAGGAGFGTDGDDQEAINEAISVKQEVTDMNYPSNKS
Assay: Trp mass spectrometry assay (SIRT1 activation)
Assay type: biochemical
Settings: for Emax: percent maximum fold activation of SIRT1, read-out: Tryp % Fold Act
Outline: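 Activation is expressed as EC1.5, the concentration raising activity 50% above DMSO control, and as maximum percent of control. Mass-spec readout was OAADPR or deacetylated Trp peptide after a formic-acid-quenched 25-min, 25 °C reaction: 10 nM bacterially expressed His-SIRT1, 0.5 μM acetyl-p53-derived peptide, 120 μM NAD+, pH 7.5 HEPES with […].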

[1] = Trp mass spectrometry assay, EC1.5 = concentration giving 150% activation of SIRT1
[2] = concentration of test compound that results in 150% activation of SIRT1, Trp peptide substrate
[3] = Trp mass spectrometry assay, EC1.5 = concentration of test compound that results in 150% activation of SIRT1

SMILES | Tryp AVG EC1.5 (μM) [1] | Emax (Trp mass spectrometry assay) | Tryp AVG EC1.5 (μM) [2] | Emax (Trp peptide substrate) | Tryp AVG EC1.5 (μM) [3]
Cc1cccnc1NC(=O)N1c2nc(-c3cccc(C(F)(F)F)c3)ccc2N2CCC[C@H]1C2 [Example 35] |  | ≥ 150% |  |  | 
O=C(Nc1cccc(C2(C(F)(F)F)N=N2)c1)N1c2nc(-c3cccc(C(F)(F)F)c3)ccc2N2CC[C@H]1C2 [Example 315] |  |  | B (EC1.5 1-25 μM) | ≥ 150% | 
O=C(Nc1cccc(-c2cnco2)c1)N1c2nc(-c3cccc(C(F)(F)F)c3)ccc2N2CC[C@H]1C2 [68 (1)] |  | ≥ 150% |  |  | A (EC1.5<1 μM)
O=C(Nc1ccncn1)N1c2nc(-c3cncc(C(F)(F)F)c3)ccc2N2CCC[C@H]1C2 [Example 393] |  |  | A (EC1.5<1 μM) | ≥ 150% | 
O=C(Nc1nccs1)N1c2nc(N3CCCC(C(F)(F)F)C3)ccc2N2CCC[C@@H]1C2 (some centres unmarked) [Example 310] |  |  | B (EC1.5 1-25 μM) | ≥ 150% | 
CN(C)Cc1cccc(-c2ccc3c(n2)N(C(=O)Nc2ccccn2)[C@H]2CCN3C2)c1 [Example 343] |  |  | B (EC1.5 1-25 μM) | ≥ 150% | 
Cn1cc(NC(=O)N2c3nc(-c4cccc(Cl)c4)ccc3N3CC[C@H]2C3)cn1 [Example 108] |  | ≥ 150% |  |  | B (EC1.5 1-25 μM)
O=C(Nc1cnc(OC[C@H](O)CO)cn1)N1c2nc(-c3cccc(C(F)(F)F)c3)ccc2N2CC[C@H]1C2 [Example 18] |  | ≥ 150% |  |  | 
O=C(Nc1ccccn1)N1c2nc(-c3cccc(C(F)(F)F)c3)ccc2N2CCC1CC2 [Example 158] |  | ≥ 150% |  |  | B (EC1.5 1-25 μM)
Cc1nc(NC(=O)N2c3nc(-c4cccc(OC(F)(F)F)c4)ccc3N3CC[C@H]2C3)sc1C [Example 165] |  | ≥ 150% |  |  | A (EC1.5<1 μM)
Cc1cnccc1NC(=O)N1c2nc(C3CCCC(C(F)(F)F)C3)ccc2N2CC[C@H]1C2 (some centres unmarked) [Example 100] |  | ≥ 150% |  |  | B (EC1.5 1-25 μM)
O=C(Nc1ccncn1)N1c2nc(-c3cncc(Cl)c3)ccc2N2CC[C@H]1C2 [Example 249] |  |  | B (EC1.5 1-25 μM) | ≥ 150% | 
Cn1ncc2cc(NC(=O)N3c4nc(-c5cccc(C(F)(F)F)c5)ccc4N4CC[C@H]3C4)ccc21 [Example 87] |  | ≥ 150% |  |  | A (EC1.5<1 μM)
COc1cc(NC(=O)N2c3nc(-c4ccnc(C)c4)ccc3N3CC[C@H]2C3)ncn1 [Example 240] |  |  | B (EC1.5 1-25 μM) | ≥ 150% | 
Cc1nn(C)c(C)c1-c1ccc2c(n1)N(C(=O)Nc1cccnc1)[C@H]1CCN2C1 [Example 486] |  |  | C (EC1.5>25 μM) | ≥ 150% | 
Cc1cc(C)nc(NC(=O)N2c3nc(-c4cccc(C(F)(F)F)c4)ccc3N3CC[C@H]2C3)c1 [Example 13] |  | ≥ 150% |  |  | 
O=C(Nc1ccncc1)N1c2nc(N3CCCC(C(F)(F)F)C3)ccc2N2CCC[C@H]1C2 (some centres unmarked) [Example 360] |  |  | A (EC1.5<1 μM) | ≥ 150% | 
Cc1cc(-c2ccc3c(n2)N(C(=O)Nc2cncc(F)c2)[C@H]2CCN3C2)ccn1 [Example 238] |  |  | B (EC1.5 1-25 μM) | ≥ 150% | 
O=C(Nc1ccccn1)N1c2nc(-c3cccc(OC[C@@H](O)CO)c3)ccc2N2CC[C@H]1C2 [Example 155] |  | ≥ 150% |  |  | B (EC1.5 1-25 μM)
O=C(Nc1cncc(F)c1)N1c2nc(-c3ccnc(N4CCC(C(F)(F)F)C4)c3)ccc2N2CC[C@H]1C2 (some centres unmarked) [Example 410] |  |  | A (EC1.5<1 μM) | ≥ 150% | 
O=C(Nc1ccc(F)cn1)N1c2nc(-c3cccc(C(F)(F)F)c3)ccc2N2CC[C@H]1C2 [Example 46] |  | ≥ 150% |  |  | 
O=C(Nc1ccc(F)cn1)N1c2nc(-c3ccnc(N4CC[C@@H](F)C4)c3)ccc2N2CC[C@H]1C2 [Example 474] |  |  | A (EC1.5<1 μM) | ≥ 150% | 
O=C(Nc1nccs1)N1c2nc(N3CCCC(C(F)(F)F)C3)ccc2N2CCC[C@H]1C2 (some centres unmarked) [Example 295] |  |  | A (EC1.5<1 μM) | ≥ 150% | 
N#Cc1cccc(-c2ccc3c(n2)N(C(=O)Nc2cccc(-c4cnco4)c2)[C@H]2CCN3C2)c1 [Example 178] |  | ≥ 150% |  |  | A (EC1.5<1 μM)
O=C(Nc1cnccn1)N1c2nc(-c3cncc(C(F)(F)F)c3)ccc2N2CC[C@H]1C2 [Example 278] |  |  | A (EC1.5<1 μM) | ≥ 150% | 
O=C(Nc1ccccn1)N1c2nc(-c3cc(F)cc(F)c3)ccc2N2CC[C@H]1C2 [Example 344] |  |  | A (EC1.5<1 μM) | ≥ 150% | 
O=C(Nc1ccccn1)N1c2nc(-c3ccc4nonc4c3)ccc2N2CC[C@H]1C2 [Example 372] |  |  | B (EC1.5 1-25 μM) | ≥ 150% | 

The remaining lines, values ahead:

Tryp AVG EC1.5 (μM) [1] | Emax (Trp mass spectrometry assay) | Tryp AVG EC1.5 (μM) [2] | Emax (Trp peptide substrate) | Tryp AVG EC1.5 (μM) [3] | SMILES
A (EC1.5<1 μM) | ≥ 150% |  |  |  | O=C(Nc1cccc(-c2cnco2)c1)N1c2nc(-c3cncc(C(F)(F)F)c3)ccc2N2C[C@@H](O)[C@H]1C2 [Example 709]
B (EC1.5 1-25 μM) | ≥ 150% |  |  |  | Cc1nc(NC(=O)N2c3nc(-c4cncc(C(F)(F)F)c4)ccc3N3C[C@@H](O)[C@H]2C3)sc1C [Example 697]
B (EC1.5 1-25 μM) | ≥ 150% |  |  |  | CC(C)(C)OC(=O)NCc1cccc(-c2ccc3c(n2)C(C(=O)Nc2ccncc2)[C@H]2CCN3C2)c1 (some centres unmarked) [Example 794]
A (EC1.5<1 μM) | ≥ 150% |  |  |  | CCCn1cc(-c2cccc(NC(=O)N3c4nc(-c5cccc(C(F)(F)F)c5)ccc4N4CC[C@H]3C4)n2)cn1 [Example 656]
 |  | A (EC1.5<1 μM) | ≥ 150% |  | Cc1nc(-c2cccc(NC(=O)N3c4nc(-c5cccc(C(F)(F)F)c5)ccc4N4CC[C@H]3C4)c2)cs1 [Example 583]
A (EC1.5<1 μM) | ≥ 150% |  |  |  | CCCC(=O)c1cccc(NC(=O)N2c3nc(-c4cccc(C(F)(F)F)c4)ccc3N3CC[C@H]2C3)c1 [Example 736]
 |  | B (EC1.5 1-25 μM) | ≥ 150% |  | COc1cc(NC(=O)N2c3nc(-c4cncc(F)c4)ccc3N3CCC2CC3)ncn1 [Example 579]
A (EC1.5<1 μM) | ≥ 150% |  |  |  | CC(=O)N1CCC(c2cccc(NC(=O)N3c4nc(-c5cccc(C(F)(F)F)c5)ccc4N4CC[C@H]3C4)c2)C1 (some centres unmarked) [Example 635]
 |  | A (EC1.5<1 μM) | ≥ 150% |  | O=C(Nc1cncc(Br)c1)N1c2nc(-c3cccc(C(F)(F)F)c3)ccc2N2CC[C@H]1C2 [Example 542]
A (EC1.5<1 μM) | ≥ 150% |  |  |  | NCc1cccc(NC(=O)N2c3nc(-c4cccc(C(F)(F)F)c4)ccc3N3CCC[C@H]2C3)c1 [Example 757]
 |  | A (EC1.5<1 μM) | ≥ 150% |  | O=C(Nc1ccccn1)N1c2nc(-c3cccc(C(F)(F)F)c3)ccc2N2C[C@@H](O)[C@H]1C2 [Example 601]
 |  | B (EC1.5 1-25 μM) | ≥ 150% |  | O=C(NCCc1ccccn1)N1c2nc(-c3cccc(C(F)(F)F)c3)ccc2N2CC[C@H]1C2 [Example 614]
 |  | B (EC1.5 1-25 μM) | ≥ 150% |  | Cc1ccc(-c2ccc3c(n2)N(C(=O)Nc2cccnc2)[C@H]2CCCN3C2)cn1 [Example 514]
B (EC1.5 1-25 μM) | ≥ 150% |  |  |  | C#CCOc1cccc(NC(=O)N2c3nc(-c4ccc(C5(C(F)(F)F)N=N5)cc4)ccc3N3CC[C@H]2C3)c1 [Example 802]
 |  | A (EC1.5<1 μM) | ≥ 150% |  | COc1cnc(NC(=O)N2c3nc(-c4ccnc(C)c4)ccc3N3CC[C@H]2C3)cn1 [Example 500]
A (EC1.5<1 μM) | ≥ 150% |  |  |  | CC(=O)c1ccc(NC(=O)N2c3nc(-c4cccc(C(F)(F)F)c4)ccc3N3CC[C@H]2C3)cc1 [Example 668]
 |  | A (EC1.5<1 μM) | ≥ 150% |  | O=C(Nc1ccnc(Br)c1)N1c2nc(-c3cccc(C(F)(F)F)c3)ccc2N2CC[C@H]1C2 [Example 541]
 |  | B (EC1.5 1-25 μM) | ≥ 150% |  | O=C(NCc1ccccc1)N1c2nc(-c3cccc(C(F)(F)F)c3)ccc2N2CC[C@H]1C2 [Example 597]
 |  | B (EC1.5 1-25 μM) | ≥ 150% |  | CCCn1cc(-c2ccc3c(n2)N(C(=O)Nc2cccnc2)[C@H]2CCN3C2)cn1 [Example 487]
B (EC1.5 1-25 μM) | ≥ 150% |  |  |  | O=C(NCCCc1ccncc1)N1c2nc(-c3cccc(C(F)(F)F)c3)ccc2N2CC[C@H]1C2 [Example 633]
B (EC1.5 1-25 μM) | ≥ 150% |  |  |  | O=C(Nc1ccncn1)N1c2nc(-c3cccc(C(F)(F)F)c3)ccc2N2C[C@@H](O)[C@H]1C2 [Example 669]
